In ChEMBL document CHEMBL3243946, “A comparison of the antiserotonin, antihistamine, and anticholinergic activity of cyproheptadine with analogues having furan nuclei fused to the 10,11-vinylene bridge” (1977):
Calls of active or inactive are those of the source. No cut-off for these calls is given here.

How the values were obtained:
Rattus norvegicus [1] = assay: Antiserotonin activity in Sprague-Dawley rat assessed as inhibition of feet weight gain at 10 mg/kg, sc after 30 mins; assay type: functional, organism-based; design: dose 10 mg/kg
Mus musculus [2] = assay: Anticholinergic activity in Carworth CF1 mouse assessed as dose required to produce pupil dilation to 1.5 micrometer units in 50% mouse at 324 mg/kg, ip; assay type: functional, organism-based; design: dose 324 mg/kg
Cavia porcellus [3] = assay: Antihistamine activity in Duncan-Hartley guinea pig assessed as protection of animal from death caused by histamine aerosol-induced bronchoconstriction at 12.5 mg/kg, ip; assay type: functional, organism-based; design: dose 12.5 mg/kg
Mus musculus [4] = assay: Anticholinergic activity in ip dosed Carworth CF1 mouse assessed as dose required to produce pupil dilation to 1.5 micrometer units in 50% mouse; assay type: functional
Cavia porcellus [5] = species: Cavia porcellus; assay: animal or person; assay type: functional; details: Duncan-Hartley, ip
Description: Antihistamine activity in ip dosed Duncan-Hartley guinea pig assessed as protection of animal from death caused by histamine aerosol-induced bronchoconstriction

Mus musculus [6] = assay: Anticholinergic activity in ip dosed Carworth CF1 mouse assessed as pupil dilation to 15 micrometer units in 100% mouse; assay type: functional
Rattus norvegicus [7] = assay: Antiserotonin activity in sc dosed Sprague-Dawley rat assessed as inhibition of feet weight gain after 30 mins; details: 0.5 h

Compound	inhibition (Rattus norvegicus [1])	inhibition (Mus musculus [2])	inhibition (Cavia porcellus [3])	ED (Mus musculus [4])	ED50 (Cavia porcellus [5])	ED (Mus musculus [6])	ED50 (Rattus norvegicus [7])
CN1CCC(=C2c3ccccc3C3=C(c4ccccc42)C2CCC3O2)CC1	inactive	inactive	inactive	–	–	–	–
Cc1occ2c1-c1ccccc1C(=C1CCN(C)CC1)c1ccccc1-2	inactive	–	inactive	4 mg/kg	–	–	–
CN1CCC(=C2c3ccccc3C(CO)=C(CO)c3ccccc32)CC1	inactive	–	–	4 mg/kg	12.5 mg/kg	–	–
CN1CCC(=C2c3ccccc3C3=C(c4ccccc42)C2(C)C=CC3O2)CC1 (stereo not drawn)	inactive	inactive	inactive	–	–	–	–
CN1CCC(=C2c3ccccc3C3=C(C(=O)OC3)c3ccccc32)CC1.O=C(O)C(=O)O	inactive	–	–	–	9.7 mg/kg	<4 mg/kg	–
CN1CCC(=C2c3ccccc3C3=C(c4ccccc42)C2C=CC3O2)CC1	inactive	inactive	inactive	–	–	–	–
c1ccc2c(c1)C(=C1CCNCC1)c1ccccc1-c1cocc1-2	inactive	inactive	inactive	–	–	–	–
CN1CCC(=C2c3ccccc3C3COCC3c3ccccc32)CC1 (stereo not drawn)	inactive	inactive	inactive	–	–	–	–
C1=CC2OC1C1=C2c2ccccc2C(=C2CCNCC2)c2ccccc21	inactive	inactive	inactive	–	–	–	–
CN1CCC(=C2c3ccccc3C=Cc3ccccc32)CC1.Cl [CYPROHEPTADINE HYDROCHLORIDE]	–	–	–	4 mg/kg	0.05 mg/kg	–	0.02 mg/kg
CN1CCC(=C2c3ccccc3-c3cocc3-c3ccccc32)CC1	inactive	–	inactive	36 mg/kg	–	–	–
